Earlier results as cited in US12133918B2, “Partially pre-gelatinized cassava starch as pharmaceutical excipient” (Griffin Gamma, LLC, priority 2021, dated 2024).

Settings: literature and experimental data

| BCS class | permeability (BCS) | solubility (BCS) | SMILES |
| --- | --- | --- | --- |
| Class I | highly permeable | highly soluble | CC(=O)Oc1ccccc1C(=O)O [Acetylsalicylic acid, acetylsalicylic acid] |
|  | highly permeable | highly soluble | COc1ccccc1OCC(O)CO (centres unmarked) [Guaifenesin, 3-(2-methoxyphenoxy)-1,2-propanediol] |
